Laboratory results published in patent US20260217763A1, “Novel Peptide and Use Thereof” (Zincure Corp., priority 2022, published 2026).
Square brackets hold non-standard residues; d marks the D form. Ends that are not written are not given here. Peptide text beside a SMILES is read from it.

Experiments:
[1] = In vitro plasma stability assay; type: in vitro ADME, ICR mice; details: 10 μM peptide, 37° C.; for stability in plasma over time: mouse plasma, 0 to 90 min, LC-MS
Protocol: FIG. 1 is a graph showing the results of measuring quantitative changes of alloferon L-type and alloferon D-type peptides by mass spectrometry to investigate their degradation in plasma from mice, where 10 µM of each alloferon peptide was treated in isolated plasma and were incubated at 37° C. for 0, 10, 30, 60, and 90 min.
As the present inventors believed that the mechanism of action of alloferon peptides is through endocytosis via multi-ligand receptors rather than physiological activity and that zinc-binding capacity is an important mechanism, they investigated the blood stability of the D-type alloferon of Example 1-2 in which all amino acids except glycine have been replaced with D-type amino acids and the L-type alloferon of Example 1-1. An in vitro plasma stability assay was performed to compare the stability of the L-type peptide and the D-type peptide of alloferon in the plasma of mice. For this purpose, 500 to 600 μl of blood was obtained from ICR mice by orbital blood sampling, which was subsequently centrifuged at 2000×g for 20 min at 4° C. using a centrifuge, and the supernatant was collected to obtain plasma. After adding 10 μM of the alloferon L-type and D-type peptides to 100 μl of the plasma, the plasma was incubated at 37° C. for 0, 5, 10, 30, 60, and 90 min. Then, 500 μl of cold methanol was added to precipitate the protein, and the protein was lyophilized and subjected to liquid chromatography and protein mass spectrometry.

[2] = test system: GFP-mHttQ74 aggregates in HEK293T cell line; assay: Mutant huntingtin protein aggregates after overexpression, Western blot; type: cell-based; details: peptide 30 μM with 100 nM bafilomycin A1, 18 h, HEK293T; FIG. 6
Protocol: (§1) FIG. 6 is a result of Western blot analysis of the level of mutant huntingtin protein expression in protein samples obtained 18 h after treatment of HEK293T cells transfected to express mutant huntingtin protein with 100 nM bafilomycin A1 alone or in combination with 30 μM of some variant alloferon peptides according to one embodiment of the present invention, for investigating the degradation of mutant huntingtin protein aggregates by treatment with some variant alloferon peptides (DALS1, DAL-VS_V(−Q), DAL1, and DALV2) according to one embodiment of the present invention.
(§2) The present inventors then investigated whether some of the variant peptides (DALS1, DALVS_V, DAL1, DALV2) comprising the amino acid sequences designated as SEQ ID NO: 3 through 16 could resolve SOD1 aggregates that formed after transient transfection of SOD1 protein into the 293T cell line. To this end, EGFP-SOD1 G93A DNA was transiently transfected into the HEK293T cell line using Lipofectamine 2000. After transfection, the cell lines were incubated in a cell culture machine at 37° C. and 5% CO2 for 30 h, and the culture medium was replaced with Minimum Essential Medium (MEM, Gibco, USA). Subsequently, the cells were pretreated with 100 nM bafilomycin for 30 min, which were then treated with μM variant alloferon peptide and incubated for 18 h. […] Then, it was subjected to protein quantification using BCA protein assay kit (Pierce Biotechnology, USA), and centrifuged at 17,000×g for 20 min, where the supernant was discarded and only the cell debris was taken to obtain protein. Subsequently, 5× sample buffer (300 mM Tris, pH 6.8, 10% SDS, 50% Glycerol, 0.1% BPB, 2.5% Mercaptoethanol, 100 mM DTT) was mixed with the quantified sample, denatured at 95° C. for 5 min, and prepared for analysis. […] Protein signals were detected using enhanced chemiluminescence (INTRON Biotechnology, South Korea) and a bio-imaging system (MF-Chemibis, Shimadzu Scientific Korea Corporation, South Korea). […]

[3] = test system: EGFP-α-synuclein A53T aggregates in HEK293T cell line; assay: α-synuclein protein aggregates after overexpression, Western blot; type: cell-based; details: peptide with 100 nM bafilomycin A1, 18 h, HEK293T; FIG. 5
Protocol: FIG. 5 is a result of Western blot analysis of the level of α-synuclein protein expression in protein samples obtained 18 h after treatment of HEK293T cells transfected to express α-synuclein with 100 nM bafilomycin A1 alone or in combination with 30 µM of some variant alloferon peptides according to one embodiment of the present invention, for investigating the degradation of α-synuclein protein aggregates by treatment with some variant alloferon peptides (DALS1, DAL-VS_V(−Q), DAL1, and DALV2) according to one embodiment of the present invention.
as §2

[4] = test system: H4 cell lines (GL-H4) expressing GFP-linked LC3; assay: Analysis of autophagic flow blocked by bafilomycin A-1 (LC3-GFP spots); type: cell-based; details: peptide 20 μM with Baf A1 100 nM, GL-H4 cells; FIGS. 2E and 2F
Protocol: FIGS. 2A to 2C are series of fluorescence micrographs of LC3-GFP spots 12 h after treating H4 cell line (GL-H4) that stably overexpresses GFP-LC3 protein with various variant alloferon peptides according to one embodiment of the present invention in combination with bafilomycin at a concentration of 20 μM, showing that autophagic flux blocked by bafilomycin A-1 is restored by the variant alloferon peptides according to one embodiment of the present invention. FIGS. 2D to 2F are graphs showing quantification of the fluorescence intensity of LC3-GFP spots 12 h after treatment of the GL-H4 cell line with the variant alloferon peptides according to one embodiment of the present invention in combination with bafilomycin at a concentration of 20 μM.
H4 cell line (GL-H4) and HEK293T cell line permanently transfected with GFP-LC3 plasmid were used in the present invention. The cell culture medium was Minimum Essential Medium (MEM, WellGene) supplemented with 10% fetal bovine serum (Hyclone, USA) and antibiotic and antifungal mixture (WellGene, Korea) and cultured in a cell culture machine at 37° C. and 5% CO2.
To investigate the effect of peptides comprising the amino acid sequences designated as SEQ ID NO: 3 to 16 on autophagic flow, the present inventors treated H4 cell lines (GL-H4) expressing GFP-linked LC3 with the peptides (20 μM) and/or the autophagic inhibitor Bafilomycin A-1 (Baf A1, 100 nM) to inhibit autophagy, and then the effect of the variant alloferon peptides according to one embodiment of the present invention was investigated by fluorescence microscopy analysis.

[5] = test system: EGFP-SOD1 G93A aggregates in HEK293T cell line; assay: SOD1 protein aggregates after SOD1 overexpression, Western blot; type: cell-based; details: peptide with 100 nM bafilomycin, 18 h, HEK293T; FIG. 3B
Protocol: as §1, with “FIG. 3A” for “FIG. 6”, “of SOD1” for “of mutant huntingtin”, “express SOD1” for “express mutant huntingtin protein”, “invention. FIG. 3B is a graph representing the results of quantifying relative expression of the SOD1 protein. In FIG. 3B, * indicates a significant difference compared to the treatment with bafilomycin alone (* p<0.05).” for “invention.”
The present inventors then investigated whether some of the variant peptides (DALS1, DALVS_V, DAL1, DALV2) comprising the amino acid sequences designated as SEQ ID NO: 3 through 16 could resolve SOD1 aggregates that formed after transient transfection of SOD1 protein into the 293T cell line. To this end, EGFP-SOD1 G93A DNA was transiently transfected into the HEK293T cell line using Lipofectamine 2000. After transfection, the cell lines were incubated in a cell culture machine at 37° C. and 5% CO2 for 30 h, and the culture medium was replaced with Minimum Essential Medium (MEM, Gibco, USA). Subsequently, the cells were pretreated with 100 nM bafilomycin for 30 min, which were then treated with μM variant alloferon peptide and incubated for 18 h. After that, proteinase inhibitors and phosphatase inhibitors (2 μg/ml aprotinin, 2 μg/ml leupeptin, 1 μg/ml pepstatin A, 1 mM phenyl-methylsulfonyl fluoride (PMSF), 1 mM Na3 VO4, 5 mM NaF and 10 mM Na4P2O7) were put into a 6-well culture dish at 200 μl per well to lyse the cells. The obtained cell lysate was first left at 30 min for 4° C. Then, it was subjected to protein quantification using BCA protein assay kit (Pierce Biotechnology, USA), and centrifuged at 17,000×g for 20 min, where the supernant was discarded and only the cell debris was taken to obtain protein. Subsequently, 5× sample buffer (300 mM Tris, pH 6.8, 10% SDS, 50% Glycerol, 0.1% BPB, 2.5% Mercaptoethanol, 100 mM DTT) was mixed with the quantified sample, denatured at 95° C. for 5 min, and prepared for analysis. Then, electrophoresis was performed using 8% to 15% SDS-polyacrylamide gel, and the proteins separated by their sizes were transferred to polyvinylidene difluoride (PVDF) membranes (Millipore, USA). The protein-transferred membranes were then blocked with 3% skim milk powder in TBST for 1 h. […] Protein signals were detected using enhanced chemiluminescence (INTRON Biotechnology, South Korea) and a bio-imaging system (MF-Chemibis, Shimadzu Scientific Korea Corporation, South Korea).

[6] = test system: P-Tau S214, P-Tau T205, unphosphorylated tau, p62, LC3, β-amyloid (APP); assay: Western blot of aggregate-forming proteins in cortex and hippocampus; type: in vivo; details: 5×FAD mice
Text: The present inventors conducted a western blot analysis to investigate the expression of pathogenic aggregate-forming proteins in brain tissue, such as tau protein, p62, and LC3, other than β-amyloid from the results of Experimental examples 8-2 and 8-3 above.
Specifically, cortical and hippocampal tissues were obtained from experimental animals sacrificed after the behavioral experiments, and the tissues were lysed and subjected to Western blot analysis using antibodies that specifically bind to phosphorylated tau S214 (P-Tau S214), phosphorylated tau T205 (P-Tau T205), unphosphorylated tau, p62, LC3, and β-amyloid (APP), respectively.

For `CC(C)[C@@H](NC(=O)CNC(=O)[C@H](N)Cc1c[nH]cn1)C(=O)N[C@H](CO)C(=O)NCC(=O)N[C@H](Cc1c[nH]cn1)C(=O)NCC(=O)N[C@H](CCC(N)=O)C(=O)N[C@H](Cc1c[nH]cn1)C(=O)NCC(=O)N[C@@H](C(=O)N[C@H](Cc1c[nH]cn1)C(=O)NCC(=O)O)C(C)C` [DAL1] (H-[dH]G[dV][dS]G[dH]G[dQ][dH]G[dV][dH]G-OH; N-terminus and C-terminus assumed), the “stability in plasma over time” value [1] was “remained stable over time without degradation”.

With “DALH1: variant alloferon peptide, SEQ ID NO: 8, HGvsGhGqhGvhG (capital L-type, lowercase D-type) (HG[dV][dS]G[dH]G[dQ][dH]G[dV][dH]G)” the “mutant huntingtin protein aggregate dissociating ability compared to DAL1” value [2] was “better protein aggregate dissociating ability”.

In the case of “DALQ1: variant alloferon peptide, SEQ ID NO: 10, hGvsGhGQhGvhG (capital L-type, lowercase D-type) ([dH]G[dV][dS]G[dH]GQ[dH]G[dV][dH]G)”, the “α-synuclein protein aggregate dissociating ability compared to DAL-1” value [3] is reported as “better protein aggregate dissociating ability”.

In the case of “DALS1: variant alloferon peptide, SEQ ID NO: 5, hGvSGhGqhGvhG (capital L-type, lowercase D-type) ([dH]G[dV]SG[dH]G[dQ][dH]G[dV][dH]G)”, the “autophagic scavenging activity compared to D-type alloferon peptide (DAL1)” value [4] is reported as “superior autophagic scavenging activity” and the “SOD1 protein aggregate dissociating ability compared to DAL1” value [5] is reported as “better protein aggregate dissociating ability”.

In the case of “DALV1: variant alloferon peptide, SEQ ID NO: 7, hGVsGhGqhGvhG (capital L-type, lowercase D-type) ([dH]GV[dS]G[dH]G[dQ][dH]G[dV][dH]G)”, the “autophagic scavenging activity compared to D-type alloferon peptide (DAL1)” value [4] is reported as “superior autophagic scavenging activity”.

With “DALV2: variant alloferon peptide, SEQ ID NO: 4, hGvsGhGqhGVhG (capital L-type, lowercase D-type) ([dH]G[dV][dS]G[dH]G[dQ][dH]GV[dH]G)” the “autophagic scavenging activity compared to D-type alloferon peptide (DAL1)” value [4] was “superior autophagic scavenging activity”, the “amount of β-amyloid” value ([6]; Western blot of hippocampal sections) was “significantly reduced” and the “expression of aggregate-forming proteins” value ([6]; cortex and hippocampus, 20 mg/kg IP, 25 weeks) was “significantly lower expression”. For the same compound, the “protein aggregate dissociating ability compared to DAL1” value ([6]; cortical Western blot analysis) was “better protein aggregate dissociating ability”, the “mutant huntingtin protein aggregate dissociating ability compared to DAL1” value [2] was “better protein aggregate dissociating ability” and the “α-synuclein protein aggregate dissociating ability compared to DAL-1” value [3] was “better protein aggregate dissociating ability”. The “SOD1 protein aggregate dissociating ability compared to DAL1” value [5] was “better protein aggregate dissociating ability”.

In the case of “DALVS: variant alloferon peptide, SEQ ID NO: 3, hGVSGhGqhGvhG (capital L-type, lowercase D-type) ([dH]GVSG[dH]G[dQ][dH]G[dV][dH]G)”, the “autophagic scavenging activity compared to D-type alloferon peptide (DAL1)” value [4] is reported as “superior autophagic scavenging activity”.

For DALVSQV, the “autophagic scavenging activity compared to D-type alloferon peptide (DAL1)” value [4] was “superior autophagic scavenging activity”.

In the case of “DALVS_V: variant alloferon peptide with glutamine removed, SEQ ID NO: 14, hGVSGhGhGVhG (capital L-type, lowercase D-type) ([dH]GVSG[dH]G[dH]GV[dH]G)”, the “autophagic scavenging activity compared to D-type alloferon peptide (DAL1)” value [4] is reported as “superior autophagic scavenging activity” and the “SOD1 protein aggregate dissociating ability compared to DAL1” value [5] is reported as “better protein aggregate dissociating ability”.

In the case of HGVSGHGQHGVHG [LAL], the half-life ([1]; FIG. 1, isolated mouse plasma, read-out: half-life (T1/2)) is reported as 51.8 min and the “stability in plasma over time” value [1] is reported as “degraded early in plasma”.
